ChEMBL document CHEMBL1140101, “Synthesis, binding affinity, and molecular docking analysis of new benzofuranone derivatives as potential antipsychotics” (J Med Chem, 2008)

Assays:
[1] = target: T1, 5-hydroxytryptamine receptor 2C (Homo sapiens, UniProt P28335); test: Displacement of [3H]mesulergine from human cloned 5HT2C receptor
T1 sequence (P28335 whole entry): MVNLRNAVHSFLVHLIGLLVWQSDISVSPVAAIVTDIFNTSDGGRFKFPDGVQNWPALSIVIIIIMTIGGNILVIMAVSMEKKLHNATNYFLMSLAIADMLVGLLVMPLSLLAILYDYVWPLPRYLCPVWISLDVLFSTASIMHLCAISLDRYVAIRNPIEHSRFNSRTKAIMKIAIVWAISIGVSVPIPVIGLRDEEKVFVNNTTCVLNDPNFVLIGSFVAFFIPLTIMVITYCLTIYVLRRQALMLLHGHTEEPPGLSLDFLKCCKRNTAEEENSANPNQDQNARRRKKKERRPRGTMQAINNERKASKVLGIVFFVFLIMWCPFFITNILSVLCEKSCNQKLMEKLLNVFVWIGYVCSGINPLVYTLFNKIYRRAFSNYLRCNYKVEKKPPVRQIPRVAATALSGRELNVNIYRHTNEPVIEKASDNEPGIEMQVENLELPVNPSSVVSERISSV

[2] = target: T2, 5-hydroxytryptamine receptor 2A (Homo sapiens, UniProt P28223); test: Displacement of [3H]ketanserin from human cloned 5HT2A receptor
T2 sequence (P28223 whole entry): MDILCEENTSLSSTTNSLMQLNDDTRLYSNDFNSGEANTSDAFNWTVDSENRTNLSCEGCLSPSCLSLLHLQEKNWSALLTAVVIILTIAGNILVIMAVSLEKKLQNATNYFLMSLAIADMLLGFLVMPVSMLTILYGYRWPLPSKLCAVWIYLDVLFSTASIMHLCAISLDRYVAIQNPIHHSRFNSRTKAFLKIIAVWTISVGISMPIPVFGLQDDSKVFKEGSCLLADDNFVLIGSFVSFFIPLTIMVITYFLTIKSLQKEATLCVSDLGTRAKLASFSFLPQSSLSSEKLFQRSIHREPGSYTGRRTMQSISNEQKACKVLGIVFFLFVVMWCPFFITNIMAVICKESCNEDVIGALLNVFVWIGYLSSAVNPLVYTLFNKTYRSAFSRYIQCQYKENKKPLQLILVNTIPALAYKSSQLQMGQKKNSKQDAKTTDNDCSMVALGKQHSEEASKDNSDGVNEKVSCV

[3] = target: T2, 5-hydroxytryptamine receptor 2A; test: Antagonist activity at human cloned 5HT2A receptor; format: functional

Row | SMILES | Ki [1] | Ki [2] | pA2 [3]
1 | O=C1CC(CN2CCC(C(=O)c3ccc(F)cc3)CC2)Cc2occc21 (stereo not drawn) | 1550 nM | 95.5 nM | 7.28
2 | O=C(c1ccc(F)cc1)C1CCN(CCC2CCc3occc3C2=O)CC1 (stereo not drawn) | 339 nM | 77.6 nM | 7.58
3 | CCOC(=O)c1oc2c(c1C)C(=O)CC(CN1CCC(c3noc4cc(F)ccc34)CC1)C2 (stereo not drawn) | > 10000 nM | 8.32 nM | 
4 | COC(=O)c1coc2c1C(=O)CC(CN1CCC(C(=O)c3ccc(F)cc3)CC1)C2 (stereo not drawn) | > 10000 nM | 25.7 nM | 
5 | O=C1CC(CN2CCC(C(=O)c3ccc(F)cc3)CC2)Cc2oc(-c3ccccc3)cc21 (stereo not drawn) | > 10000 nM | 17.4 nM | 
6 | CCOC(=O)c1oc2c(c1C)C(=O)CC(CN1CCC(C(=O)c3ccc(F)cc3)CC1)C2 (stereo not drawn) | > 10000 nM | 21.9 nM | 
7 | O=C1CC(CN2CCN(C(=O)c3ccc(F)cc3)CC2)Cc2occc21 (stereo not drawn) | > 10000 nM | 1320 nM | 

Other lines, results leading:

Row | Ki [1] | Ki [2] | pA2 [3] | SMILES
8 |  |  | 9.25 | O=C1c2ccoc2CCC1CCN1CCC(c2noc3cc(F)ccc23)CC1 (stereo not drawn)
9 | > 10000 nM | 1.55 nM |  | COC(=O)c1coc2c1C(=O)CC(CN1CCC(c3noc4cc(F)ccc34)CC1)C2 (stereo not drawn)
10 | 245 nM | 2.51 nM |  | O=C1C[C@@H](CN2CCC(c3noc4cc(F)ccc34)CC2)Cc2occc21
11 | 3310 nM | 6.92 nM |  | O=C1CC(CN2CCC(c3noc4cc(F)ccc34)CC2)Cc2oc(-c3ccccc3)cc21 (stereo not drawn)
12 | 372 nM | 5.13 nM |  | O=C1C[C@H](CN2CCC(c3noc4cc(F)ccc34)CC2)Cc2occc21
13 | 339 nM | 5.5 nM | 7.95 | O=C1CC(CN2CCC(c3noc4cc(F)ccc34)CC2)Cc2occc21 (racemic)
